Assays:
Assay type in all cases: cell-based, mouse
Aiolos = assay: Ex vivo compound treatment of splenocytes, western blot of Aiolos degradation (Aiolos versus GAPDH)
Experimental: (§1) For example, degradation of CRBN substrate (e.g., Aiolos, Ikaros, or GSPT1) was evaluated by ex vivo compound treatment of splenocytes isolated from the human CRBN transgenic mice. Spleens from wild type (WT), heterozygous (HET), and homozygous human CRBN knock-in mice (HOM) were collected and dissociated in 5 mL PBS using gentleMACS™ Dissociator (Miltenyi Biotec, San Diego, CA). Spleen homogenates were filtered using 70 μm pre-separation filters (#130-095-823, Miltenyi Biotec) into 15-mL conical tubes and centrifuged at 1200 rpm for 5 min. After decanting, splenocytes were re-suspended in 1 mL of ACK Lysing Buffer (Gibco #A10492-01, Thermo Fisher Scientific, Waltham, MA) for 2 min. to lyse red blood cells. Ten mL of cold PBS was added to each conical tube to stop lysis, and splenocytes were again centrifuged at 1200 rpm for 5 min. After decanting, splenocytes were re-suspended in 1 mL PBS, filtered again, and pooled for each mouse phenotype to count and determine viability using Vi-Cell™ XR cell counter (Beckman Coulter, Indianapolis, IN). After counting and viability check, tubes with pooled splenocytes were centrifuged at 1200 rpm for 5 min., decanted, and resuspended in warm RPMI 1640 media supplemented with 10% FBS at a concentration of 5.5×10^6 splenocytes/mL (20-30 mL depending on number of splenocytes).
(§2) 15×10^6 WT, HET, or HOM splenocytes were plated in wells of separate 6-well plates. Compounds diluted in DMSO (final concentration 0.2%)/RPMI 1640 media were dispensed into wells at concentrations ranging from 10 μM to 1 nM. 0.2% DMSO was also dispensed in one well of each plate as a negative control. Splenocytes were treated with compounds from 4 to 24 hrs in incubators at 37° C. Compound-treated splenocytes were then collected in 15 mL conical tubes, centrifuged at 1500 rpm for 6 mins, media aspirated off, and washed once with 5 mL PBS. After washing, splenocytes were again centrifuged, PBS was aspirated off, and splenocyte pellets were flash frozen on dry ice.
(§3) Splenocyte pellets were lysed using cold 1× cell lysis buffer (#9803, Cell Signaling Technology, Danvers, MA), supplemented with cOmplete ULTRA protease inhibitor tablet (#05892920001, Roche Diagnostics Corporation, Indianapolis, IN) and phosphatase inhibitors (Pierce #78442, Thermo Fisher Scientific, Waltham, MA). Protein concentration of lysates was determined using BCA Protein Assay Kit (Pierce #A10492-01, Thermo Fisher Scientific, Waltham, MA) and western blots were run to evaluate substrate degradation resulting from ex vivo compound treatment. Twenty microgram of each splenoctye lysate was loaded onto 4-12% Criterion XT Bis Tris gels (Bio-Rad #3450124, Bio-Rad Laboratories, Hercules, CA) and run at 130 V for 1.5 hr and then transferred onto nitrocellulose membranes using Trans-Blot Turbo Transfer System (Bio-Rad Laboratories). After 1 hr of blocking in Odyssey® Blocking buffer (#927-40100, LI-COR Biotechnology, Lincoln, NE), membranes were incubated with primary antibodies for Aiolos (polyclonal goat, #sc-18683, Santa Cruz Biotechnology, Dallas, TX), Ikaros (monoclonal rabbit, #14859, Cell Signaling Technology), GSPT-1 (polyclonal rabbit, #ab49878, Abcam PLC, Cambridge, United Kingdom), GAPDH (monoclonal mouse, #AM4300, Thermo Fisher Scientific) overnight at 4° C. After washing in PBST, membranes were probed with a fluorescent secondary antibody, Alexa Fluor 680® goat anti-rabbit IgG (Invitrogen #A-21076, Thermo Fisher Scientific) or IRDye® 800CW goat anti-mouse IgG (#926-32210, LI-COR Biotechnology), for 1 hr at room temperature. Following incubation with secondary antibodies, membranes were again washed in PBST. Membranes were scanned using Odyssey® CLx Imaging System (LI-COR Biotechnology) and quantified using Image Studio™ software.
(§4) A second ex vivo experiment using splenocytes from WT, HET, and HOM mice was conducted to study the dose dependency of Aiolos or Ikaros degradation in response to a range of Compound B concentrations. […]

Ikaros = assay: Ex vivo compound treatment of splenocytes, western blot of Ikaros degradation (Ikaros versus GAPDH)
Experimental: as §1, §2, §3, §4

GSPT1 = assay: Ex vivo compound treatment of splenocytes, western blot of GSPT1 degradation (GSPT1 versus GAPDH); conditions: 4 hr ex vivo
Experimental: as §1, §2
as §3, with “software. […]” for “software.”

[1] = HET and HOM splenocytes, 1 μM or 10 μM, 24 hrs ex vivo
[2] = HET splenocytes, 0.001 μM, 6 hr ex vivo
[3] = HET splenocytes, 0.01 μM, 6 hr ex vivo
[4] = HET splenocytes, 0.1 μM, 6 hr ex vivo
[5] = HET splenocytes, 1 μM, 6 hr ex vivo
[6] = HET splenocytes, 1 μM, 24 hr ex vivo
[7] = HOM splenocytes, 0.001 μM, 6 hr ex vivo
[8] = HOM splenocytes, 0.01 μM, 6 hr ex vivo
[9] = HOM splenocytes, 0.1 μM, 6 hr ex vivo
[10] = HOM splenocytes, 1 μM, 6 hr ex vivo
[11] = HOM splenocytes, 1 μM, 24 hr ex vivo
[12] = WT splenocytes, 1 μM or 10 μM, 24 hrs ex vivo
[13] = WT splenocytes, 1 μM, 24 hr ex vivo
[14] = WT splenocytes, 10 μM, 24 hr ex vivo
[15] = WT splenocytes, any concentration (1, 0.1, 0.01, 0.001 μM), 6 hr ex vivo

Compound: O=C1CC[C@H](N2Cc3c(OCc4ccc(CN5CCOCC5)cc4)cccc3C2=O)C(=O)N1 (stereo in doubt) [Compound B, 3-(4-((4-(morpholinomethyl)benzyl)oxy)-1-oxoisoindolin-2-yl)piperidine-2,6-dione]
- degradation of Aiolos (Aiolos; HET (heterozygous human CRBN knock-in) splenocytes, 10 μM, 24 hr ex vivo): 77%
- degradation of Aiolos (in words) (Aiolos; [1]): significant degradation
- degradation of Aiolos (Aiolos; [2]): 0%
- degradation of Aiolos (Aiolos; [3]): 13%
- degradation of Aiolos (Aiolos; [4]): 32%
- degradation of Aiolos (Aiolos; [5]): 41%
- degradation of Aiolos (Aiolos; [6]): 76%
- degradation of Aiolos (Aiolos; HOM (homozygous human CRBN knock-in) splenocytes, 10 μM, 24 hr ex vivo): 84%
- degradation of Aiolos (Aiolos; [7]): 28%
- degradation of Aiolos (Aiolos; [8]): 54%
- degradation of Aiolos (Aiolos; [9]): 66%
- degradation of Aiolos (Aiolos; [10]): 78%
- degradation of Aiolos (Aiolos; [11]): 81%
- degradation of Aiolos (in words) (Aiolos; [12]): only minimal degradation
- degradation of Aiolos (Aiolos; [13]): 28%
- degradation of Aiolos (Aiolos; [14]): 27%
- degradation of Aiolos (in words) (Aiolos; [15]): no degradation
- degradation of Ikaros (in words) (Ikaros; [1]): significant degradation
- degradation of Ikaros (Ikaros; [2]): 0%
- degradation of Ikaros (Ikaros; [3]): 8%
- degradation of Ikaros (Ikaros; [4]): 45%
- degradation of Ikaros (Ikaros; [5]): 49%
- degradation of Ikaros (Ikaros; [6]): 60%
- degradation of Ikaros (Ikaros; HET splenocytes, 10 μM, 24 hr ex vivo): 68%
- degradation of Ikaros (Ikaros; [7]): 14%
- degradation of Ikaros (Ikaros; [8]): 41%
- degradation of Ikaros (Ikaros; [9]): 55%
- degradation of Ikaros (Ikaros; [10]): 59%
- degradation of Ikaros (Ikaros; [11]): 76%
- degradation of Ikaros (Ikaros; HOM splenocytes, 10 μM, 24 hr ex vivo): 82%
- degradation of Ikaros (in words) (Ikaros; [12]): only minimal degradation
- degradation of Ikaros (Ikaros; [13]): 23%
- degradation of Ikaros (Ikaros; [14]): 20%
- degradation of Ikaros (in words) (Ikaros; [15]): no degradation

Compound: O=C1CCC(N2Cc3cc(CNC(=O)C(F)(F)c4ccc(F)cc4)ccc3C2=O)C(=O)N1 (stereo not drawn) [Compound E, 2-(4-flurophenyl)-N-((2-(2,6-dioxopiperidin-3-yl)-1-oxoisoindolin-5-yl)methyl)-2,2-difluoroacetamide]
- degradation of GSPT1 (GSPT1; HOM splenocytes, 100 nM): 70%
- degradation of GSPT1 (GSPT1; HOM splenocytes, 10 μM): 74%
- degradation of GSPT1 (in words) (GSPT1; HOM splenocytes): significant degradation
- degradation of GSPT1 (GSPT1; WT splenocytes, 100 nM): 0%
- degradation of GSPT1 (GSPT1; WT splenocytes, 10 μM): 6%

Compound: Cc1ccc(NC(=O)NCc2ccc3c(c2)CN(C2CCC(=O)NC2=O)C3=O)cc1Cl (stereo not drawn) [Compound C, 1-(3-chloro-4-methylphenyl)-3-((2-(2,6-dioxopiperidin-3-yl)-1-oxoisoindolin-5-yl)methyl)urea]
- degradation of GSPT1 (GSPT1; HOM splenocytes, 1 nM): 65%
- degradation of GSPT1 (GSPT1; HOM splenocytes, 100 nM): 89%
- degradation of GSPT1 (in words) (GSPT1; HOM splenocytes): significant degradation
- degradation of GSPT1 (GSPT1; WT splenocytes, 1 nM): 11%
- degradation of GSPT1 (GSPT1; WT splenocytes, 100 nM): 7%
- degradation of GSPT1 (in words) (GSPT1; WT splenocytes): only minimal degradation
